Series [1] can be described thus: Pharmacokinetic test in mice. The following applies: for AUC / C0 / half-life / clearance / Cmax / Tmax / bioavailability: male, ICR, mouse, plasma; for clearance: read-out: CL (mL/min/kg, IV). The class given is in vivo, ICR mice. As to the method:
Dosage preparation: The dosing solution was prepared on the day of dosing. 2 mg of compound was weighed and dissolved in 5% DMSO+10% solutol+85% saline to prepare a solution for intravenous administration at a concentration of 0.2 mg/mL. 2 mg of compound was weighed and dissolved in 25% PEG 200+75% (0.5% MC) to obtain a solution for oral administration at a concentration of 1 mg/mL.
Six healthy male naïve ICR mice, weighing 25 to 30 g, were divided into two groups (intravenous and oral groups) with three in each group, and administered in a single dose. After 3 days of acclimatization, the mice were fasted overnight (10 to 12 hours) the night before the experiment, but had free access to water during the experiment, and the diet was resumed 4 hours after administration. After intravenous and oral administration, the timer was started. Blood was collected via the orbital venous plexus at the scheduled time points (IV&PO: 0.083, 0.25, 0.5, 1, 2, 4, 6, 8, and 24 hours). 40 μL of whole blood was collected at each point and added to a 1.5 mL EP tube containing sodium heparin. The collected whole blood was vibrated twice on a vortex mixer, mixed well, placed on wet ice, and centrifuged at 8000 rpm for 5 minutes at 4° C. within 1 hour. The supernatant plasma was stored in a −80° C. freezer until processing for analysis.

Another series addresses ATX (Homo sapiens (Human), UniProt Q13822). Kind of series: ATX enzyme inhibition assay (Amplex UltraRed/choline oxidase/HRP, 16:0 Lyso PC substrate). The class given is biochemical. In a few lines: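 ATX (2× stock […]) preincubated with compound for 10 min at room temperature in assay buffer at pH 8.5 or 7.5. Reaction started with 16:0 Lyso PC, choline oxidase, HRP and Amplex UltraRed (2.5× working stock); fluorescence read kinetically (ex 550/em 590 nm) for 60 min.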

The test system of series [2] is plasma LPA 18:1 and LPA 18:2. The series can be described thus: Human plasma ex vivo assay (LPA 18:1 / 18:2 by LC-MS/MS). The following applies: 37° C., 2 hours. The class given is biochemical. In a few lines: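 Human plasma incubated 2 h at 37° C with compound (8 points, 1:3 dilution, top 10 μM, 0.1% DMSO), then quenched with 0.1% FA containing LPA 17:0 internal standard.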

Where [3] appears, read: assay buffer pH 8.5, read-out: IC50 (nM) pH 8.5.
[4] abbreviates: LPA 18:1, read-out: Human plasma ex vivo assay IC50 (18:1 LPA).
[5] abbreviates: LPA 18:2, read-out: Human plasma ex vivo assay IC50 (18:2 LPA).
Setting [6] is: 5 mg/kg, PO - 5 mpk vs IV - 1 mpk.
[7] abbreviates: assay buffer pH 7.5, read-out: IC50 (nM) pH 7.5.

We go through eight molecules from patent publication US20250051321A1, “TRICYCLIC DERIVATIVE AND PREPARATION METHOD THEREFOR AND APPLICATION THEREOF” (SHANGHAI JEMINCARE PHARMACEUTICAL CO., LTD., priority 2021, published 2025).

Like-named read-outs stand apart in the source and are kept apart here.

Regarding `CN(c1nc(-c2ccc(F)cc2)c(C#N)s1)c1c2c(nc3c(F)cc(N4CC5(CN(C(=O)[C@H]6CCOC6)C5)C4)cc13)[C@H](O)CC2` (single isomer, unassigned) [Example E5-a], in series [1] (IV - 1 mpk), the AUCi was found to be 1986 ng·h/mL; the “C0 (IV)” value amounted to 1882 ng/mL; the “CL (mL/min/kg, IV)” value worked out at 8.54 mL/min/kg; the T1/2 is 0.95 h. Further, in series [1] (PO - 10 mpk), the AUCi is 44380 ng·h/mL; the “Cmax (PO)” value was found to be 7763 ng/mL; the T1/2 is 2.34 h; the “Tmax (hr, PO)” value amounted to 0.5 h. The “Bioavailability (%)” value in series [1] (PO - 10 mpk vs IV - 1 mpk) turned out to be 223%. Also, the IC50 at ATX (setting [3]) amounted to 22.7 nM. Also, the IC50 in series [2] (setting [4]) is 294 nM. The IC50 in series [2] (setting [5]) was determined as 306 nM.

In the case of `CN(c1nc(-c2ccc(F)cc2)c(C#N)s1)c1c2c(nc3c(F)cc(N4CC5(CN(C(=O)C(C)(C)O)C5)C4)cc13)[C@@H](O)CC2` (single isomer, unassigned) [Example E16-a], in series [1] (1 mg/kg, IV - 1 mpk), the AUC is 5540 ng·h/mL, the C0 is 3550 ng/mL, the half-life is 1.87 h and the clearance is 3.07 mL/min/kg. In series [1] (5 mg/kg, PO - 5 mpk), the AUC came to 17000 ng·h/mL, the Cmax turned out to be 3010 ng/mL, the Tmax amounted to 0.33 h and the half-life was 2.22 h. Further, in series [1] (setting [6]), the bioavailability turned out to be 61.3%. The IC50 on ATX (setting [3]) is 20.1 nM. In addition, in series [2] (setting [4]), the IC50 came out at 381 nM. Also, in series [2] (setting [5]), the IC50 stood at 383 nM.

Consider `CN(c1nc(-c2ccc(F)cc2)c(C#N)s1)c1c2c(nc3c(F)cc(N4CC5(CN(C(=O)[C@H]6CCOC6)C5)C4)cc13)CCC2` [Example C1], for which, in series [1] (IV - 1 mpk), the AUCi is 5701 ng·h/mL; the “C0 (IV)” value was found to be 3141 ng/mL; the “CL (mL/min/kg, IV)” value worked out at 2.92 mL/min/kg; the T1/2 amounted to 2.15 h. For the same molecule, in series [1] (PO - 5 mpk), the AUCi was found to be 7392 ng·h/mL; the “Cmax (PO)” value was found to be 1903 ng/mL; the T1/2 is 2.08 h; the “Tmax (hr, PO)” value was determined as 1.0 h. The “Bioavailability (%)” value in series [1] (PO - 5 mpk vs IV - 1 mpk) worked out at 26%. Further, the IC50 at ATX (setting [7]) turned out to be 63.5 nM. In addition, the IC50 at ATX (setting [3]) amounted to 36.3 nM. In series [2] (setting [4]), the IC50 was 521 nM. Besides, the IC50 in series [2] (setting [5]) was 438 nM.

Turning to `CN(c1nc(-c2ccc(F)cc2)c(C#N)s1)c1c2c(nc3c(F)cc(N4CC5(CN(C(=O)[C@@H]6CCOC6)C5)C4)cc13)CC2` [Example C8], in series [1] (1 mg/kg, IV - 1 mpk), the AUC amounted to 2080 ng·h/mL, the C0 was determined as 1800 ng/mL, the half-life is 1.23 h and the clearance was found to be 8 mL/min/kg. Moreover, in series [1] (5 mg/kg, PO - 5 mpk), the AUC worked out at 7940 ng·h/mL, the highest level (Cmax) was 2920 ng/mL, the Tmax turned out to be 0.25 h and the half-life was 2.4 h. The bioavailability in series [1] (setting [6]) amounted to 76.2%. The IC50 on ATX (setting [7]) stood at 67.3 nM. The IC50 at ATX (setting [3]) was 27.5 nM. Besides, in series [2] (setting [4]), the IC50 turned out to be 168 nM. The IC50 in series [2] (setting [5]) was found to be 191 nM.

In the case of `CN(c1nc(-c2ccc(F)cc2)c(C#N)s1)c1c2c(nc3ncc(N4CC5(CN(C(=O)[C@@H]6CCOC6)C5)C4)cc13)CC2` [Example C17], in series [1] (5 mg/kg, PO - 5 mpk), the AUC was found to be 16900 ng·h/mL, the Cmax was found to be 4280 ng/mL, the Tmax was 0.5 h and the half-life is 2.13 h. The IC50 at ATX (setting [3]) was determined as 25.9 nM. In addition, the IC50 in series [2] (setting [4]) worked out at 318 nM. For the same molecule, in series [2] (setting [5]), the IC50 is 318 nM.

On to `CN(c1nc(-c2ccc(F)cc2)c(C#N)s1)c1c2c(nc3c(F)cc(N4CC5(CN(C(=O)[C@H]6CCOC6)C5)C4)cc13)COC2` [Example C18], for which, in series [1] (1 mg/kg, IV - 1 mpk), the AUC is 3700 ng·h/mL, the C0 was 1940 ng/mL, the half-life is 1.82 h and the clearance stood at 4.59 mL/min/kg. In series [1] (5 mg/kg, PO - 5 mpk), the AUC stood at 11000 ng·h/mL, the Cmax turned out to be 3330 ng/mL, the Tmax stood at 0.58 h and the half-life is 2.79 h. The molecule also displayed a bioavailability in series [1] (setting [6]) of 59.7%. Besides, the IC50 on ATX (setting [3]) turned out to be 15.2 nM.

As to `Cc1cc(N2CC3(CN(C(=O)C(C)(C)O)C3)C2)cc2c(N(C)c3nc(-c4ccc(F)cc4)c(C#N)s3)c3c(nc12)C(O)CC3` (stereo not shown) [Example E26], in series [1] (5 mg/kg, PO - 5 mpk), the AUC stood at 31300 ng·h/mL, the Cmax is 4430 ng/mL, the Tmax stood at 1.75 h and the half-life is 2.16 h. Also, the IC50 in series [2] (setting [4]) is 516 nM. For the same molecule, the IC50 in series [2] (setting [5]) worked out at 592 nM.

For the molecule `Cc1cc(N2CC3(CN(C(=O)C(C)(C)O)C3)C2)nc2c(N(C)c3nc(-c4ccc(F)cc4)c(C#N)s3)c3c(nc12)C(O)CC3` (stereo not shown) [Example E32], in series [1] (5 mg/kg, PO - 5 mpk), the AUC was 8890 ng·h/mL, the highest level (Cmax) was 2040 ng/mL, the Tmax came to 1.58 h and the half-life was 1.51 h. In addition, the IC50 in series [2] (setting [4]) was 202 nM. In series [2] (setting [5]), the IC50 was 185 nM.
